Literature values as cited in patent US20160303150A1, “DEUTERATED TREHALOSE FORMULATIONS AND USES THEREOF” (BioBlast Pharma Ltd., priority 2015, published 2016).

How the values were obtained:
[1] = in vivo
[2] = 0.2%-5% trehalose in drinking water, 5-9 weeks, transgenic HD mice

Question: What does the source list for `OC[C@H]1O[C@H](O[C@H]2O[C@H](CO)[C@@H](O)[C@H](O)[C@H]2O)[C@H](O)[C@@H](O)[C@@H]1O` [trehalose, α-G-glucopyranosyl α-D-glucopyranoside]?
Answer: oral amount causing diarrhea and bloating (oral): 40-50 gram per day; safety findings in healthy volunteers (oral doses ranging from 10 to 60 gr, healthy volunteers): no other safety issues were reported; oral amount frequently causing diarrhea, bloating and discomfort (oral, humans): higher than 50 g a day; HD-related motor symptoms (transgenic HD mice; [2]): improvement of HD-related motor symptoms; formation of intra-nuclear huntingtin aggregates in the brain and liver (transgenic HD mice; [2]): inhibition of formation of intra-nuclear huntingtin aggregates in the brain and liver; survival (transgenic HD mice; oral administration, HD mouse model): extend survival; fraction of administered trehalose not absorbed into the blood stream [1]: over 99.5%; aggregation formation and toxicity of mutant PABPN1 in myocytes (transgenic OPMD mice; 2% trehalose in drinking water, 4-6 months): significantly reduce aggregation formation and toxicity of the mutant PABPN1 in myocytes; OPMD onset, disease phenotype, aggregate formation and cell death (transgenic OPMD mice; oral trehalose): delay the OPMD onset, attenuate the disease phenotype, decrease polyalanine protein aggregate formation and decrease cell death
